# pIC50: −log10 of the molar value.
# Key:
# [1] = test system: GM3 expression in B16 mouse melanoma cells; test: GM3 fluorescent-linked immunosorbent assay (FLISA), B16; format: cell-based; settings: 48 hours
# Description: (§1) Inhibition of glucosylceramide synthase activity can be measured with one or more assays. A first assay is a microsomal assay that directly measures the conversion of ceramide to glucosylceramide by HPLC. Microsomes are a source of glucosylceramide synthase activity in the microsomal assay. A second assay is a cell based, phenotypic assay that monitors cell surface expression of the downstream lipid GM3 by antibody mediated immunofluorescence. Specific protocols are provided below.
# (§2) This is a phenotypic assay that measures GM3 expression in B16 mouse melanoma or C32 human melanoma cells following treatment with test compounds. Cell surface GM3 expression is determined by antibody mediated fluorescence.
# (§3) Compounds are diluted in media and plated in 384 well plates in DMSO. B16 and C32 cells are assayed at densities of 20,000 cells/ml and 62,500 cells/ml, respectively, per well. Each titration curve contains 10 points that are assayed in duplicate on each test run. The plates are incubated for 48 hours at 37° C., 5% CO2, and are then washed once with TBS. Anti-GM3 antibody is added to each well and the plates are then incubated for an additional one hour at room temperature. Plates are subsequently washed twice and incubated for an additional hour with the labeled secondary antibody. Following the final incubation, the plates are washed twice and the fluorescence at λex=D640/20 nm and λem=657 nm is detected on a fluorescent reader.
# (§4) The results of the microsomal assays are expressed as “GCS IC50,” which represents the concentration of the compound causing 50% inhibition of glucosylceramide synthase activity. The results of the cell-based assays are expressed as “GM3 B16 IC50” or “GM3 C32 IC50” for the B16 assay and the C32 assay, respectively. These values represent the concentration of the compound causing 50% inhibition of GM3 expression on the cell surface.
# [2] = test system: GM3 expression in C32 human melanoma cells; test: GM3 fluorescent-linked immunosorbent assay (FLISA), C32; format: cell-based; settings: 48 hours
# Description: as §1, §2, §3, §4
# [3] = molecular target: glucosylceramide synthase (Homo sapiens (Human), UniProt Q16739); test: Glucosylceramide synthase activity microsomal assay; format: biochemical; settings: microsomes from A375 human melanoma cells; read-out: GCS IC50
# Chain of glucosylceramide synthase (Q16739 whole entry): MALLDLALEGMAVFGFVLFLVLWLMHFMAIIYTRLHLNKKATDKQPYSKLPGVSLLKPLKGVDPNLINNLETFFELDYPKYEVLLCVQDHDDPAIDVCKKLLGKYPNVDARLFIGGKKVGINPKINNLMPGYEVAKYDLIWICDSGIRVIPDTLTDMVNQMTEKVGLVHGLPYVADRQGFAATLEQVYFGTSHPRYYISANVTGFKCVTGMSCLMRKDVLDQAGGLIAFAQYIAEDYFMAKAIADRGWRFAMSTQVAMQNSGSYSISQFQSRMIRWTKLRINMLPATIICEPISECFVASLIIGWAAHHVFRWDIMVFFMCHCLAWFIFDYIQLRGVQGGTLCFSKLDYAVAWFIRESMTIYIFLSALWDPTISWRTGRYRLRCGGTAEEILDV
# Description: as §1
# An enzyme assay using microsomes as a source of glucosylceramide synthase activity. Fluorescent ceramide substrate is delivered to membrane-bound enzyme as a complex with albumin. After reaction, ceramide and glucosylceramide are separated and quantitated by reverse-phase HPLC with fluorescence detection. Enzymatic activity is assessed using a fluorescent labeled substrate and microsomes as a source of glucosylceramide synthase. C6-NBD-Ceramide is complexed with albumin for delivery to microsomes that are isolated according to the procedure described below. The final concentration of C6-NBD-Ceramide in the stock solution is 0.5 mM; the final concentration of BSA is 0.5 mM. Separation and quantitation of substrate and product (glucosylceramide) are achieved by reverse-phase HPLC with fluorescence detection.
# Microsomes are isolated from A375 human melanoma cells. Eight to ten million cells are harvested by trypsinization and washed with ice cold PBS. Cells are resuspended in ice-cold lysis buffer containing protease inhibitors. Cell lysate is sonicated on ice using a probe sonicator. After sonication, the cell lysate is separated from debris by centrifugation at 10,000 g for 10 minutes at 4° C. The supernatant is removed and cleared by additional centrifugation at 100,000 g for 1 hour at 4° C. The pellet is then resuspended in the lysis buffer, aliquoted, and stored at −80° C. prior to use.
# The reaction is stopped by the addition of 150 μL of 100 μM C8-ceramide in 50% aq. isopropanol; 10 μL of the final mix is analyzed on HPLC (with fluorescence detector). […] Fluorescence is detected with λex=470 nm and λem=530 nm. […] Both peaks are separated from each other and the baseline and were integrated automatically by the HPLC software. The percent conversion of substrate to product is used as the readout for inhibitor testing. […]
# [4] = test system: neurological manifestations of GD-3; settings: cited from earlier work
SMILES,pIC50 [1],pIC50 [2],pIC50 [3],treatment of the neurological manifestations of GD-3 ([4]; clinical trials),"crossing of the blood-brain barrier ([4]; human, in vivo)"
"CC(C)(NC(=O)OC1CN2CCC1CC2)c1ccc(-c2ccc(CO)cc2)cc1 (centres unmarked) [Compound 17, Quinuclidin-3-yl (2-(4′-(hydroxymethyl)-[1,1′-biphenyl]-4-yl)propan-2-yl)carbamate]",3.06,4.67,3.34,,
"CC(C)(NC(=O)OC1CN2CCC1CC2)c1cccc(-c2ccccc2)c1 (centres unmarked) [Compound 4, 1-azabicyclo[2.2.2]oct-3-yl [2-(biphenyl-3-yl)propan-2-yl]carbamate]",4.94,6.10,5.82,,
"CC(C)(NC(=O)OC1CN2CCC1CC2)c1ccc(-c2ccc(CCO)cc2)cc1 (centres unmarked) [Compound 18, Quinuclidin-3-yl (2-(4′-(2-hydroxyethyl)-[1,1′-biphenyl]-4-yl)propan-2-yl)carbamate]",3.18,4.65,3.83,,
"CC(C)(NC(=O)OC1CN2CCC1CC2)c1cccc(-c2ccc(F)cc2)c1 (centres unmarked) [Compound 1, Quinuclidin-3-yl (2-(4′-fluoro-[1,1′-biphenyl]-3-yl)propan-2-yl)carbamate]",4.81,5.68,5.72,,
"O=C(NC1(c2ccc(-c3ccc(F)cc3)cc2)CC1)O[C@@H]1CN2CCC1CC2 [Compound 7, (S)-quinuclidin-3-yl 1-(4′-fluorobiphenyl-4-yl)cyclopropylcarbamate]",5.09,6.40,5.85,,
"O=C(NC1(c2ccc(-c3ccc(F)cc3F)cc2)CC1)O[C@@H]1CN2CCC1CC2 [Compound 8, (S)-1-azabicyclo[2.2.2]oct-3-yl [1-(2′,4′-difluorobiphenyl-4-yl)cyclopropyl]carbamate]",5.12,6.40,6.00,,
"CC(C)(NC(=O)OC1CN2CCC1CC2)c1ccc(-c2ccc(OCCCC#N)cc2)cc1 (centres unmarked) [Compound 22, Quinuclidin-3-yl (2-(4′-(3-cyanopropoxy)-[1,1′-biphenyl]-4-yl)propan-2-yl)carbamate]",4.06,5.49,5.02,,
"CC(C)(NC(=O)OC1CN2CCC1CC2)c1csc(-c2ccc(F)cc2)c1 (centres unmarked) [Compound 10, Quinuclidin-3-yl 2-(5-(4-fluorophenyl)thiophen-3-yl)propan-2-ylcarbamate]",4.67,5.66,5.19,,
"COCCOc1ccc(-c2nc(C(C)(C)NC(=O)OC3CN4CCC3CC4)cs2)cc1 (centres unmarked) [Compound 20, Quinuclidin-3-yl (2-(2-(4-(2-methoxyethoxy)phenyl)thiazol-4-yl)propan-2-yl)carbamate]",3.97,4.70,3.44,,
"COCCOc1ccc(-c2ccc(C(C)(C)NC(=O)OC3CN4CCC3CC4)cc2)cc1 (centres unmarked) [Compound 13, Quinuclidin-3-yl (2-(4′-(2-methoxyethoxy)-[1,1′-biphenyl]-4-yl)propan-2-yl)carbamate]",4.41,6.15,5.46,,
CCCCN1C[C@H](O)[C@@H](O)[C@H](O)[C@H]1CO [miglustat],,,,ineffective,does cross the blood-brain barrier
"CC(C)(NC(=O)O[C@@H]1CN2CCC1CC2)c1nc(-c2ccc(F)cc2)cs1 [Compound 12, (S)-quinuclidin-3-yl 2-(4-(4-fluorophenyl)thiazol-2-yl)propan-2-ylcarbamate]",4.06,5.43,4.69,,
"COCCCOc1ccc(-c2nc(C(C)(C)NC(=O)OC3CN4CCC3CC4)cs2)cc1 (centres unmarked) [Compound 19, Quinuclidin-3-yl (2-(2-(4-(3-methoxypropoxy)phenyl)thiazol-4-yl)propan-2-yl)carbamate]",3.71,4.37,3.77,,
"CC(C)(NC(=O)O[C@@H]1CN2CCC1CC2)c1ccc(-c2ccccc2)cc1 [Compound 5, (S)-quinuclidin-3-yl 2-(biphenyl-4-yl)propan-2-ylcarbamate]",4.71,6.52,5.92,,
"COCCOc1ccc(-c2cccc(C(C)(C)NC(=O)OC3CN4CCC3CC4)c2)cc1 (centres unmarked) [Compound 15, Quinuclidin-3-yl (2-(4′-(2-methoxyethoxy)-[1,1′-biphenyl]-3-yl)propan-2-yl)carbamate]",4.53,5.31,4.57,,
"COCCOc1ccc(-c2ccc(C(C)(C)NC(=O)OC3CN4CCC3CC4)nc2)cc1 (centres unmarked) [Compound 21, Quinuclidin-3-yl 2-(5-(4-(2-methoxyethoxy)phenyl)pyridin-2-yl)propan-2-ylcarbamate]",3.58,4.95,4.30,,
"COc1ccc(-c2ccc(C3(NC(=O)OC4CN5CCC4CC5)CC3)cc2)cc1 (centres unmarked) [Compound 9, 1-azabicyclo[2.2.2]oct-3-yl [1-(4′-methoxybiphenyl-4-yl)cyclopropyl]carbamate]",4.77,6.40,5.85,,
"COCCOc1cccc(-c2ccc(C(C)(C)NC(=O)O[C@@H]3CN4CCC3CC4)cc2)c1 [Compound 14, (S)-quinuclidin-3-yl (2-(3′-(2-methoxyethoxy)-[1,1′-biphenyl]-4-yl)propan-2-yl)carbamate]",3.96,5.28,4.98,,
"O=C(NC1(c2ccc(-c3ccccc3)cc2)CC1)OC1CN2CCC1CC2 (centres unmarked) [Compound 6, Quinuclidin-3-yl 1-(biphenyl-4-yl)cyclopropylcarbamate]",4.74,6.22,5.55,,
"CC(C)(NC(=O)O[C@@H]1CN2CCC1CC2)c1cc(-c2ccc(F)cc2)ns1 [Compound 11, (S)-quinuclidin-3-yl 2-(3-(4-fluorophenyl)isothiazol-5-yl)propan-2-ylcarbamate]",4.09,5.74,4.83,,
"COCCCOc1ccc(-c2ccc(C(C)(C)NC(=O)OC3CN4CCC3CC4)cc2)cc1 (centres unmarked) [Compound 16, Quinuclidin-3-yl (2-(4′-(3-methoxypropoxy)-[1,1′-biphenyl]-4-yl)propan-2-yl)carbamate]",4.18,5.80,5.62,,
"CC(C)(NC(=O)OC1CN2CCC1CC2)c1ccc(-c2ccc(OCC#N)cc2)cc1 (centres unmarked) [Compound 23, Quinuclidin-3-yl (2-(4′-(cyanomethoxy)-[1,1′-biphenyl]-4-yl)propan-2-yl)carbamate]",4.32,6.10,5.59,,
"COCCOc1ccc(-c2ccc(C(C)(C)NC(=O)O[C@@H]3CN4CCC3CC4)cc2)cc1 [Compound 3, (S)-quinuclidin-3-yl (2-(4′-(2-methoxyethoxy)-[1,1′-biphenyl]-4-yl)propan-2-yl)carbamate]",4.36,5.88,5.38,,

# From US12083115B2, “Methods for treating neurological symptoms associated with lysosomal storage diseases” (Genzyme Corporation, priority 2020, dated 2024)
